Data from patent US20240261243A1, “NITRIC OXIDE DONORS, COMPOSITIONS, AND METHODS OF USE” (priority 2020, published 2024).
Values joined by “and” are separate entries in the source; they are usually repeats but may differ in a detail not shown here. Equal values may be shown once.

What was measured:
[1] = biological target: angiotensin-converting enzyme 2 (ACE2) (Homo sapiens, UniProt Q9BYF1); conditions: ACE2 inhibitor from foodstuffs; cited from earlier work
[2] = NO release half-life of diazeniumdiolate NO donors in aqueous media at pH 7.4; format: physicochemical
Description: The rate of nitric oxide release from diazeniumdiolates can be controlled using a variety of structural features.

P. aeruginosa (PAK) = test: Combination MIC/MBC assay, BIOC76 with fixed gallium citrate; format: cell-based, Pseudomonas aeruginosa; conditions: PAK; alone
Protocol: Combination MIC/MBC assays are useful when you want to look at only a few concentrations of one compound (Gallium citrate) combined with many concentrations of the second compound (BIOC76).
This method also allows us to see the change in both the MIC and MBC of a drug when in combination with another drug. Checkerboard assays only allow us to see changes in the MIC's.
Test articles are added to a 96-well plate so that when a 2× bacterial culture (prepared to 10^6 CFU/ml) is added, the final concentration in all wells was 1×.
All test articles are prepared at 4×→diluted 1:1 when other TA is added (2×) and diluted 1:1 again to 1× when bacteria are added.
TA #1 (Gallium citrate) is prepared and added to entire rows of a plate at a single concentration.
TA #2 (BIOC76) in then prepared and serially diluted in TA #1, so there are 2-fold dilutions of TA #2 combined with a single concentration of TA #1.
Plates were incubated at 37° C. for 18-24 h.
The ΔMIC/IBC is used to show the change in the MIC/IBC of BIOC76 when in combination with Gallium citrate (compared to when BIOC76 is used alone).
ΔMIC/MBC is the fold-decrease in BIOC76 concentration as a result of the combination.
We concluded BIOC76 and gallium citrate maintain synergistic activity so long as the gallium concentration is at least about 0.005 to about 0.02 mg/ml. In this experimental, we set up MIC/MBC assay and serially diluted BIOC76 in rows with fixed concentrations of gallium citrate. […] The results are shown in FIG. 6, and in the following tables: […]

P. aeruginosa strains = test: MIC/MBC of BIOC76 and gallium citrate alone against 21 strains; format: cell-based, Pseudomonas aeruginosa; conditions: for MBC Rep 1 / MIC Rep 1: alone
Description: Determined the MIC of each test article individually against the strains being tested using the CLSI MIC/MBC method.
In this study, we established the MIC/MiBC's of BIOC76 and gallium citrate alone against each of 21 P. aeruginosa strains. […] The activity of both compounds is also strain-dependent. The results are as follows (the species for each strain is Pseudomonas aeruginosa: […]

P. aeruginosa biofilms = test: Biofilm eradication (MBEC) on peg lid
[3] = NO storage and release measurement (chemiluminescence nitric oxide analyzer); format: physicochemical
Protocol: N-diazeniumdiolates NO scaffolds are pH-triggered NO-release donors. Reacting with proton in the physiological condition (e.g., 37° C., pH 7.4), 1 mole of N-diazeniumdiolate regenerates 1 mole of the parent secondary amine compounds and two moles of NO radicals. The real-time detection of NO was performed by using a chemiluminescence-based nitric oxide analyzer (NOA). The total NO storage and dissociation kinetics of water-soluble NO Donors were measured in physiological condition (pH 7.40, 37° C.). The resulting NO-release parameters (e.g., total NO storage, half-life of NO release, maximum flux, and conversion efficiency) were evaluated for suitability as a pharmaceutical product.
Transfer the solution into the high-pressure vessel and purge the headspace with nitrogen. Mix the solution and set nitric oxide pressure to 25 bar (temp 20° C.). Allow the reaction to run for minimum of 3 days. Stop the reaction by venting the NO. Precipitate the reaction product in acetone (10:1 acetone:reaction mixture). Filter the precipitate and vacuum dry.
We sought to determine whether an NO donor and gallium nitrate have antimicrobial synergy against a lab strain of P. aeruginosa (PAK). The Checkerboard assay (described herein) was used with a hepta-substituted cyclodextrin-based NO donor (hereinafter referred to as BIOC76) having approximately ˜4.7 μmol NO/mg dry powder.

[4] = N-methyl amine; cited from earlier work
[5] = PAK (N0049), 3-log reduction in biofilm

angiotensin-converting enzyme 2 (ACE2), sequence (Q9BYF1 18-805): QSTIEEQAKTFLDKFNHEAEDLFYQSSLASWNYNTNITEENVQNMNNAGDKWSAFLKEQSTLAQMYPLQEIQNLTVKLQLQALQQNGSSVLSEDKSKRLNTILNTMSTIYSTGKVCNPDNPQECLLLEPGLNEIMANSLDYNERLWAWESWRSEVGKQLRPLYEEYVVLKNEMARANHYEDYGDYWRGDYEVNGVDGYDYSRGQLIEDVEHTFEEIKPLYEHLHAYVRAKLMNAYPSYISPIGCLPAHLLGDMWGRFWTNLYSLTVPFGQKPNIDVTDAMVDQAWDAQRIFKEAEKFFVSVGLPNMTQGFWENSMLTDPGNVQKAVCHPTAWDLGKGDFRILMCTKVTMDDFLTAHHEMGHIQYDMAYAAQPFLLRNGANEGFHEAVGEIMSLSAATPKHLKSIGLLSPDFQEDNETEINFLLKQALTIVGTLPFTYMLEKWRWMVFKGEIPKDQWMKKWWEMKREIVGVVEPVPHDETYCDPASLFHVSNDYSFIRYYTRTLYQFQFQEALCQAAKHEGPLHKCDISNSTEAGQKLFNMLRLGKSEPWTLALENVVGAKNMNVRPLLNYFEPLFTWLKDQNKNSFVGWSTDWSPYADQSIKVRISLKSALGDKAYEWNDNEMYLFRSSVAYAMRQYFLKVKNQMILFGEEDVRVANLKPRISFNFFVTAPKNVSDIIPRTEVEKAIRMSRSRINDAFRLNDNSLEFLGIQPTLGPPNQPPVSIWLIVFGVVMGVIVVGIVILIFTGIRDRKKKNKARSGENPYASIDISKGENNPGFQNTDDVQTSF
Protocol for P. aeruginosa strain PAK: All test articles are prepared at 4×→diluted 1:1 when other TA is added (2×), and diluted 1:1 again to 1× when bacteria are added
Experimental Design: The MIC of BIOC76 and Gallium nitrate individually, then set up a checkerboard assay testing 49 combinations of BIOC76 and Gallium nitrate concentrations against 10^6 CFU/ml P. aeruginosa strain PAK. Plates were incubated at 37° C. for 18-24 h, and growth was assessed visually.

## N[C@@H](CCN[C@@H](CCN1CC[C@H]1C(=O)O)C(=O)O)C(=O)O [Nicotianamine]
[1]
  IC50: 84 nM

## CC(C)C[C@H](NC(=O)[C@@H]1CCCN1N(O)N=O)C(=O)NCC(N)=O [Entry 49]
[2]; vs entry 29
  diazeniumdiolate half-life, fold longer than unsubstituted pyrrolidine analog: 140 fold
[2]; vs entry 30
  diazeniumdiolate half-life, fold longer than proline carboxylate analog: over 200 fold

## O=NN(O)N1C2CCC1c1ccccc12 [Entry 50]
[2]; vs entry 23
  fold more stable than monocyclic dimethyl-substituted pyrrolidine analog: 8 fold

## O=C([O-])CC(O)(CC(=O)[O-])C(=O)[O-].[Ga+3] [Gallium citrate, gallium citrate, reference compound]
P. aeruginosa (PAK)
  MIC GaCi: 65 µg/mL
P. aeruginosa strains; 21 P. aeruginosa strains
  killing of P. aeruginosa strains (conclusion): does not kill any strain of P. aeruginosa
  mode of activity alone (conclusion): largely bacteriostatic
P. aeruginosa strains; strain N0047 (AR-BANK #103)
  MBC Rep 1: >2000 µg/mL
  MIC Rep 1: 250 µg/mL
P. aeruginosa strains; strain N0048 (ATCC 19143)
  MBC Rep 1: >2000 µg/mL
  MIC Rep 1: 2000 µg/mL
P. aeruginosa strains; strain N0049 (PAK)
  MBC Rep 1: >2000 µg/mL
  MIC Rep 1: 65 µg/mL
P. aeruginosa strains; strain N0050 (AR-BANK #0095)
  MBC Rep 1: >2000 µg/mL
  MIC Rep 1: 250 µg/mL
P. aeruginosa strains; strain N0051 (AU32077)
  MBC Rep 1: >2000 µg/mL
  MIC Rep 1: 250 µg/mL
P. aeruginosa strains; strain N0052 (AU25834)
  MIC Rep 1: >2000 µg/mL
P. aeruginosa strains; strain N0053 (AU30524)
  MBC Rep 1: >2000 µg/mL
  MIC Rep 1: 250 µg/mL
P. aeruginosa strains; strain N0054 (AU26773)
  MBC Rep 1: >2000 µg/mL
  MIC Rep 1: 125 µg/mL
P. aeruginosa strains; strain N0055 (AU22725)
  MBC Rep 1: >2000 µg/mL
  MIC Rep 1: 62.5 µg/mL
P. aeruginosa strains; strain N0056 (AU22505)
  MBC Rep 1: >2000 µg/mL
  MIC Rep 1: 1000 µg/mL
P. aeruginosa strains; strain N0057 (AU35400)
  MBC Rep 1: >2000 µg/mL
  MIC Rep 1: 65 µg/mL
P. aeruginosa strains; strain N0058 (AU32543)
  MBC Rep 1: >2000 µg/mL
  MIC Rep 1: 500 µg/mL
P. aeruginosa strains; strain N0059 (AR-BANK #0054)
  MBC Rep 1: >2000 µg/mL
  MIC Rep 1: 32.5 µg/mL
P. aeruginosa strains; strain N0069 (AR-BANK #0090)
  MBC Rep 1: >2000 µg/mL
  MIC Rep 1: 125 µg/mL
P. aeruginosa strains; strain N0070 (AR-BANK #0092)
  MBC Rep 1: >2000 µg/mL
  MIC Rep 1: 62.5 µg/mL
P. aeruginosa strains; strain N0071 (AR-BANK #0100)
  MBC Rep 1: >2000 µg/mL
  MIC Rep 1: 125 µg/mL
P. aeruginosa strains; strain N0072 (AR-BANK #0105)
  MBC Rep 1: >2000 µg/mL
  MIC Rep 1: 500 µg/mL
P. aeruginosa strains; strain N0079 (AR-BANK #0108)
  MBC Rep 1: >2000 µg/mL
  MIC Rep 1: 125 µg/mL
P. aeruginosa strains; strain N0080 (AR-BANK #0110)
  MBC Rep 1: >2000 µg/mL
  MIC Rep 1: 125 µg/mL
P. aeruginosa strains; strain N0081 (AR-BANK #0111)
  MBC Rep 1: >2000 µg/mL
  MIC Rep 1: 250 µg/mL
P. aeruginosa strains; strain N0099 (ATCC 29260)
  MBC Rep 1: >2000 µg/mL
  MIC Rep 1: 125 µg/mL

## O=[N+]([O-])[O-].O=[N+]([O-])[O-].O=[N+]([O-])[O-].[Ga+3] [Gallium nitrate, gallium nitrate, reference compound]
P. aeruginosa biofilms; [5]
  MBEC of Gallium nitrate: >16 mg/mL
P. aeruginosa biofilms; biofilms grown under aerobic conditions
  effectiveness against P. aeruginosa biofilms: is not
P. aeruginosa strain PAK
  MIC Ga(NO3)3 alone: 65 µg/mL
P. aeruginosa strain PAK; in combination with BIOC76
  MIC Ga(NO3)3 combo: 15 µg/mL

## C[C@@H]1CCC[C@H](C)N1N(O)N=O [Entry 22, 2,6 cis-dimethylpiperdine-NONOate]
[2]; vs entry 19
  rate of NO release, fold slower than unsubstituted piperidine: over 60 fold
[3]
  Max Flux: 4933 ppb/mg
  NO Total: 3.7 µmol/mg
[3]; physiological condition (pH 7.40, 37° C.), buffer not named, pH 7.4, NO release
  half-life: 1.3 h

## C[C@@H]1CCC[C@H](C)N1C [N-methyl-cis-2,6-dimethylpiperidine]
[4]
  pKa: 9.35

## NC[C@H]1O[C@H](O[C@H]2[C@H](O)[C@@H](O[C@H]3O[C@H](CO)[C@@H](O)[C@H](N)[C@H]3O)[C@H](N)C[C@@H]2N)[C@H](N)C[C@@H]1O [Tobra, Tobramycin]
P. aeruginosa biofilms; [5]
  MBEC of Tobra: 8 µg/mL and 4 µg/mL
